In ChEMBL document CHEMBL3137667, “[Drug-induced liver injury; fourteenth updated edition of the bibliographic database of liver injuries and related drugs]” (Gastroenterol Clin Biol, 2004):

How the values were obtained:
[1] = human, serum, 4383 h
[2] = human, serum
[3] = human
[4] = human; remark: listed apart in the source
[5] = Highest frequency of acute liver toxicity observed during clinical trials, expressed as a percentage. [column '% AIGUE' in source]; conditions: human
[6] = human, serum; remark: listed apart in the source
[7] = human; remark: listed apart in the source
[8] = human; remark: listed apart in the source
[9] = human; remark: listed apart in the source
[10] = Proposed mechanism(s) of liver damage. [column 'MEC' in source]; conditions: human
[11] = human; remark: listed apart in the source
[12] = human; remark: listed apart in the source
[13] = human; remark: listed apart in the source
[14] = Highest frequency of moderate liver toxicity observed during clinical trials, expressed as a percentage. [column '% BIOL' in source]; conditions: human
[15] = Times to onset, minimal and maximal, observed in the indexed observations. [column 'DELAI' in source]; conditions: human
[16] = human; remark: listed apart in the source
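For Hepatotoxicity (association with vascular disease) in this document: count of indexed literature references reporting vascular liver injury in humans, e.g. peliosis hepatitis, hepatic veno-occlusive disease or Budd-Chiari syndrome.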
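For Hepatotoxicity (benign tumour) in this document: value is a count of indexed literature references citing a benign tumour confirmed by histopathology.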
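For Hepatotoxicity (choleostasis) in this document: human cholestatic liver injury, shown by histopathology or by peak ALT or AST elevation over alkaline phosphatase ratio below 2, value counts indexed literature reports.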
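For Hepatotoxicity (chronic liver disease) in this document: chronic liver injury confirmed by histopathology or persistently raised serum aminotransferase activity beyond 6 months, value given as the count of indexed literature references.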
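For Hepatotoxicity (cirrhosis) in this document: value is a count of indexed literature references reporting cirrhosis confirmed by histopathology.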
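For Hepatotoxicity (cytolytic) in this document: human cytolytic liver injury, shown by histopathology or by a ratio above 5 of peak ALT or AST elevation to alkaline phosphatase elevation, value counts indexed references.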
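For Hepatotoxicity (granulomatous hepatitis) in this document: value is a count of indexed literature references reporting granulomatous liver disease confirmed by histopathology.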
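For Hepatotoxicity (malignant tumour) in this document: malignant tumour confirmed by histopathology, value gives the count of indexed literature references reporting it.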
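For Hepatotoxicity (severe hepatitis) in this document: human clinical data: severe hepatitis, meaning potentially life-threatening liver failure or clinically observed cases, the value counts how many indexed literature references report it.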
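For Hepatotoxicity (steatosis) in this document: steatosis confirmed by histopathology, value is the count of indexed references.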

| Structure (SMILES) | Hepatotoxicity (chronic liver disease) [1] | Hepatotoxicity (acute) [2] | Hepatotoxicity (cirrhosis) [3] | Hepatotoxicity (severe hepatitis) [4] | Hepatotoxicity (acute) [5] | Hepatotoxicity (moderate) [6] | Hepatotoxicity (granulomatous hepatitis) [7] | Hepatotoxicity (steatosis) [8] | Hepatotoxicity (benign tumour) [9] | Hepatotoxicity (mechanism) [10] | Hepatotoxicity (malignant tumour) [11] | Hepatotoxicity (association with vascular disease) [12] | Hepatotoxicity (choleostasis) [13] | Hepatotoxicity (moderate) [14] | Hepatotoxicity (time to onset) [15] | Hepatotoxicity (cytolytic) [16] | Hepatotoxicity (severe hepatitis) ([4]; Liver) | Hepatotoxicity (acute) ([5]; Liver) | Hepatotoxicity (moderate) ([14]; Liver) |
| --- | --- | --- | --- | --- | --- | --- | --- | --- | --- | --- | --- | --- | --- | --- | --- | --- | --- | --- | --- |
| CCCCN1CCCCC1C(=O)Nc1c(C)cccc1C (stereo not given) [BUPIVACAINE] | 0 | 2 | 0 | 0 | 0% | 0 | 0 | 0 | 0 | Allergic | 0 | 0 | 2 | 0% | 2 weeks - 1 month | 1 | – | – | – |
| c1ccc2c(CCC3CCNCC3)c[nH]c2c1 [INDALPINE] | 0 | 1 | 0 | 0 | 0% | 1 | 0 | 1 | 0 | Allergic | 0 | 0 | 1 | 0% | 25 days - 4 months | 1 | – | – | – |
| COc1cc(/C=C/C(=O)O)ccc1O [FERULATE] | 1 | 2 | 2 | 0 | 0% | 0 | 0 | 0 | 0 | Dose-dependant | 0 | 0 | 1 | 0% | 2 days - 5 years | 1 | – | – | – |
| CN1CCN(CCCN2c3ccccc3Sc3ccc(S(=O)(=O)N(C)C)cc32)CC1 [THIOPROPERAZINE] | 0 | 2 | 0 | 0 | 0% | 0 | 0 | 0 | 0 | Allergic | 0 | 0 | 1 | 0% | 24 days - > 1 month | 2 | – | – | – |
| CO/N=C(\C(=O)N[C@@H]1C(=O)N2C(C(=O)OC(C)OC(C)=O)=C(COC(N)=O)CS[C@H]12)c1ccco1 (stereo not given in full) [CEFUROXIME AXETIL] | 0 | 2 | 0 | 0 | 0.2% | 31 | 0 | 0 | 0 | Allergic | 0 | 0 | 1 | 20% | 4 days | 0 | – | – | – |
| CCC(COC(=O)c1cc(OC)c(OC)c(OC)c1)(c1ccccc1)N(C)C (stereo not given) [TRIMEBUTINE] | 0 | 1 | 0 | 0 | 0% | 0 | 0 | 0 | 0 | Allergic | 0 | 0 | 0 | 0% | 2 weeks | 1 | – | – | – |
| O=C1CN=C(c2ccccc2Cl)c2cc([N+](=O)[O-])ccc2N1 [CLONAZEPAM] | 0 | 2 | 0 | – | – | 0 | 0 | 0 | 0 | Toxic Metabolite | 0 | 0 | 0 | – | 3 weeks - 4 months | 2 | 1 | 0% | 0% |
| CS(=O)(=O)c1ccc(C2=C(c3ccccc3)C(=O)OC2)cc1 [ROFECOXIB] | 0 | 2 | 0 | 0 | 0% | 1 | 0 | 0 | 0 | Allergic | 0 | 0 | 1 | 3.2% | 9 weeks | 1 | – | – | – |
| CCOC(=O)CN[C@@H](C(=O)N1CC[C@H]1C(=O)NCc1ccc(/C(N)=N\O)cc1)C1CCCCC1 [XIMELAGATRAN] | 0 | 3 | 0 | 0 | 6.8% | 9 | 0 | 0 | 0 | Dose-dependant | 0 | 0 | 0 | 9.8% | 1 month - 6 months | 0 | – | – | – |
| CN1CCN(CCCN2c3ccccc3Sc3ccccc32)CC1 [PERAZINE] | 0 | 3 | 0 | 0 | 0.3% | 5 | 0 | 0 | 0 | Dose-dependant | 0 | 0 | 1 | 43% | 1.5 months - 1 year | 2 | – | – | – |
